From patent US20250145589A1, “PYRIDINE DERIVATIVE AND USE THEREOF” (SICHUAN HUIYU PHARMACEUTICAL CO., LTD., priority 2021, published 2025)
Read-outs that look alike come from different tables or passages of the source.

Columns and labels:
[1] = target: PI3Kα (Homo sapiens (Human), UniProt P42336); test: Inhibition of PI3Kα efficacy assay (ADP-Glo kinase assay); type: biochemical; conditions: read-out: PI3Kα inhibitory activity (IC50)
Summary of the method: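 Eight five-fold dilutions of compound (2 mM DMSO stock) tested; kinase reaction with PI and ATP ran 60 min at RT, followed by ADP-Glo and detection reagent steps of 40 min each. Four-parameter logistic fitting gave IC50 values.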

[2] = target: PI3Kδ (Homo sapiens (Human), UniProt O00329); test: Inhibition of PI3Kδ efficacy assay (ADP-Glo kinase assay); type: biochemical; conditions: read-out: PI3Kδ inhibitory activity (IC50)
Summary of the method: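 Luminescent ADP-Glo readout of PI3Kδ: after a 60 min RT reaction with PI/ATP substrate, ATP depletion (40 min) and ADP detection (40 min) steps followed. Compounds tested as eight five-fold serial dilutions; inhibition rates fitted to log(inhibitor) vs. response, variable slope, for IC50.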

[3] = test system: NCI-H358 cells (KRAS G12C mutant); test: NCI-H358 cell proliferation inhibition (CellTiter-Glo); type: cell-based; conditions: Homo sapiens, NCI-H358, 72 h; H358 cells (G12C mutation), 3 days, Table 6; read-out: NCI-H358 (IC50)
[4] = test system: MIA PaCa-2-AMGR drug-resistant cell line; test: MIA PaCa-2-AMGR drug-resistant cell proliferation inhibitory activity test; type: cell-based; conditions: 72 h, MIA PaCa-2-AMGR drug-resistant cells, 3 days incubation, CellTiter-Glo
Summary of the method: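 Viability was read by CellTiter-Glo luminescence after 3 days of compound exposure (8 points, 5-fold serial dilution), with IC50 derived relative to untreated control. Cells: AMG510-resistant MIA PaCa-2 (selected stepwise to 1 μM AMG510), 4×10^3/well, DMEM + 10% FBS + 2.5% horse serum, 37° C.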

Sequence of PI3Kδ (O00329 whole entry): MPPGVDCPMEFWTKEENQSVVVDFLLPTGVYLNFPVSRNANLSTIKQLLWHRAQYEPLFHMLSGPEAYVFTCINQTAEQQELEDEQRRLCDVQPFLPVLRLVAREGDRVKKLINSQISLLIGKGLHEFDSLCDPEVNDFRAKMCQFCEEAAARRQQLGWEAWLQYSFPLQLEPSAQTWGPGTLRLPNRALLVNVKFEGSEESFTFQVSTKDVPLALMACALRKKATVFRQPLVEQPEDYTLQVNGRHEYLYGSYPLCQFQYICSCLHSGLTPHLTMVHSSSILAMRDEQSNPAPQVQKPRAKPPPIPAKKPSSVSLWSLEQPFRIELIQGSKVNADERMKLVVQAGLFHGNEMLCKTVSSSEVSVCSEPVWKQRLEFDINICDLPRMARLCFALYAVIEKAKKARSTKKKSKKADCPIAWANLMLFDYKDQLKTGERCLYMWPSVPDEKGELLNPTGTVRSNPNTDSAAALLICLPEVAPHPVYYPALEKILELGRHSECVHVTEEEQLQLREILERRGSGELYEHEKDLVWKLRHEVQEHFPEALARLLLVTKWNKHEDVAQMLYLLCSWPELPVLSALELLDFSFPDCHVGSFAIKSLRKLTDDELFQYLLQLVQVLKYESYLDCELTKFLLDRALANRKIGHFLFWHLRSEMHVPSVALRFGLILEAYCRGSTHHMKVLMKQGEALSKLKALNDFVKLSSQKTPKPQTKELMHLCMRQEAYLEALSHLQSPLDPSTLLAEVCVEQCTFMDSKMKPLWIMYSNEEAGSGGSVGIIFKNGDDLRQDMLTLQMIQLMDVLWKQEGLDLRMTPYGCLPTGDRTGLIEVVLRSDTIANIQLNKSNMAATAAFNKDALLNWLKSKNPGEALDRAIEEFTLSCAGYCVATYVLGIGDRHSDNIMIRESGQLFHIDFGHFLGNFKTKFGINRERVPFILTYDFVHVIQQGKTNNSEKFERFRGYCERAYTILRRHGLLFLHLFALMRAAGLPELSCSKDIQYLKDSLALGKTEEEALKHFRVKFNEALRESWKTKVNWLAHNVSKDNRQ
Sequence of PI3Kδ (P27986 whole entry partner): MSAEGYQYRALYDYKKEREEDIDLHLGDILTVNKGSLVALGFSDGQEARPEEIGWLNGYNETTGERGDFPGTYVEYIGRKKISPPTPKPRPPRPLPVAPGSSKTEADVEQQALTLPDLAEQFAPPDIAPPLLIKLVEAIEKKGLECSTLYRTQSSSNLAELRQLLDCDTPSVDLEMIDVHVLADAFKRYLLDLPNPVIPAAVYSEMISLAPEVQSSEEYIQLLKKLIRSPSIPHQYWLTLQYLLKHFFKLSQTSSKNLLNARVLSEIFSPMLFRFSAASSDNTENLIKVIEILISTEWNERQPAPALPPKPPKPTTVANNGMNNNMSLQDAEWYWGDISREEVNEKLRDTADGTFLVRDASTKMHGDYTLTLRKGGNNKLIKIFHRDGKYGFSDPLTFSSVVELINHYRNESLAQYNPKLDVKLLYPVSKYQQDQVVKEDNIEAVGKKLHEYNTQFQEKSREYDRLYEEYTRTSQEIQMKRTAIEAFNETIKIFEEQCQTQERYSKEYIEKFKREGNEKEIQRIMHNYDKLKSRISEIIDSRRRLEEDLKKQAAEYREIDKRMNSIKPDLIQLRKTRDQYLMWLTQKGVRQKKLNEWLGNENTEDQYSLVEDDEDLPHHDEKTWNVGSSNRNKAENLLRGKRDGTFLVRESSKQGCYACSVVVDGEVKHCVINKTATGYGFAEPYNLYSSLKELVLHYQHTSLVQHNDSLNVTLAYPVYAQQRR
Sequence of PI3Kα (P42336 whole entry): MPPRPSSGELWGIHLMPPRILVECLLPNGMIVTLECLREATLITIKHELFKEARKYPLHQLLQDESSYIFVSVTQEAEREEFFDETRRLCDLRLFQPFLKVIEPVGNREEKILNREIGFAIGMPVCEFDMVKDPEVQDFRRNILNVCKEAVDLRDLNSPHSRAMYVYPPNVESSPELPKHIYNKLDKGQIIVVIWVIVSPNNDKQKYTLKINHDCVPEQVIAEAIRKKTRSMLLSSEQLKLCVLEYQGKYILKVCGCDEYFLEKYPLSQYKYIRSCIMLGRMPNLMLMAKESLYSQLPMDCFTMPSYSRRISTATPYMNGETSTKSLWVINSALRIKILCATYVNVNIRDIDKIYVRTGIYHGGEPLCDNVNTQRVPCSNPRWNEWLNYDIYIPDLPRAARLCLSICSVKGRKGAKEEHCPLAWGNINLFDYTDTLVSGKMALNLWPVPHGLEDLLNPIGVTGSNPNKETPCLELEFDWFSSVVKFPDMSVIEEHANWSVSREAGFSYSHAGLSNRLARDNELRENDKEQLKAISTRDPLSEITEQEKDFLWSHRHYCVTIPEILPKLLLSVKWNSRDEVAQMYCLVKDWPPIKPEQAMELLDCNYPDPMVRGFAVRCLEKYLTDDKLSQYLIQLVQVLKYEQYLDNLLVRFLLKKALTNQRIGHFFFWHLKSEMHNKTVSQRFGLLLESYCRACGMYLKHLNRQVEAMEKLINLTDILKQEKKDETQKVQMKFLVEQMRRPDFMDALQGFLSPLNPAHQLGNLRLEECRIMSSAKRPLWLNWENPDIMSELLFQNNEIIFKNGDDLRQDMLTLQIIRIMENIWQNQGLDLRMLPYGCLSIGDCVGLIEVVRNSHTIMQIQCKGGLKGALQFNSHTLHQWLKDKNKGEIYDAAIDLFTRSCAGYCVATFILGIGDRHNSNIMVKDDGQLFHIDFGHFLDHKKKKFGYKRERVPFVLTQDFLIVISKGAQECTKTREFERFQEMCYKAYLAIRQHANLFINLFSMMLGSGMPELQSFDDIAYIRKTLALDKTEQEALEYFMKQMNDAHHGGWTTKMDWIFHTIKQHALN
Sequence of PI3Kα (P27986 whole entry partner): as the sequence (P27986 whole entry partner) above

With `COc1ncc(-c2ccc3ncnc(C4CCN(C(=O)/C=C/C(C)=O)CC4)c3n2)cc1NS(=O)(=O)c1c(F)cccc1F` [Example 233, (E)-2,6-difluoro-N-(2-methoxy-5-(4-(1-(4-oxopent-2-enoyl)piperidin-4-yl)pyrido[3,2-d]pyrimidin-6-yl)pyridin-3-yl)benzenesulfonamide] the IC50 ([1]; Table 4) was 4 nM, the IC50 ([2]; Table 4) was 31.3 nM and the IC50 [3] was 5 nM. It also gave an IC50 [4] of 16.7 nM.
Work on `COc1ncc(-c2ccc3ncnc(N4CCN(C(=O)/C=C/C(C)=O)CC4)c3n2)cc1NS(=O)(=O)c1c(F)cncc1F` [Example 210, (E)-3,5-difluoro-N-(2-methoxy-5-(4-(4-(4-oxopent-2-enoyl)piperazin-1-yl)pyrido[3,2-d]pyrimidin-6-yl)pyridin-3-yl)pyridine-4-sulfonamide] yielded an IC50 ([1]; Table 4) of 0.54 nM, an IC50 ([2]; Table 4) of 5.9 nM and an IC50 [3] of 53.4 nM. It also gave an IC50 [4] of 97.4 nM.
Compound `C=C(C(C)=O)C(=O)N1CCN(c2ncnc3ccc(-c4cnc(OC)c(NS(=O)(=O)c5ccc(F)cc5F)c4)cc23)CC1` [Example 168, 2,4-difluoro-N-(2-methoxy-5-(4-(4-(2-methylene-3-oxobutanoyl)piperazin-1-yl)quinazolin-6-yl)pyridin-3-yl)benzenesulfonamide] has an IC50 ([1]; Table 4) of 6.2 nM, an IC50 ([2]; Table 4) of 17.2 nM and an IC50 [3] of 31.2 nM. For the same compound, the IC50 [4] was 192 nM.
Work on `COC(=O)c1ncc(-c2ccc3ncnc(N4CCN(C(=O)/C=C/C(C)=O)CC4)c3c2)cc1NS(=O)(=O)c1ccc(F)cc1F` [Example 181, methyl (E)-3-((2,4-difluoro-phenyl)sulfonamido)-5-(4-(4-(4-oxopent-2-enoyl)piperazin-1-yl)quinazolin-6-yl)picolinate] yielded an IC50 ([1]; Table 4) of 0.73 nM, an IC50 ([2]; Table 4) of 20.4 nM and an IC50 [3] of 49.7 nM. The IC50 [4] was 118 nM.
Compound `COc1ncc(-c2ccc3ncnc(N4CC5CCC4CN5C(=O)/C=C/C(C)=O)c3c2)cc1NS(=O)(=O)c1ccc(F)cc1F` (stereo not drawn) [Example 158, (E)-2,4-difluoro-N-(2-methoxy-5-(4-(5-(4-oxopent-2-enoyl)-2,5-diazabicyclo[2.2.2]octan-2-yl)quinazolin-6-yl)pyridin-3-yl)benzenesulfonamide] has an IC50 ([1]; Table 4) of 3 nM, an IC50 ([2]; Table 4) of 34.6 nM and an IC50 [3] of 55.2 nM. It also gave an IC50 [4] of 136 nM.
`COc1ncc(-c2ccc3ncnc(C4CCN(C(=O)/C=C/C(C)=O)CC4)c3n2)cc1NS(=O)(=O)c1ccccc1F` [Example 232, (E)-2-fluoro-N-(2-methoxy-5-(4-(1-(4-oxopent-2-enoyl)piperidin-4-yl)pyrido[3,2-d]pyrimidin-6-yl)pyridin-3-yl)benzenesulfonamide] showed an IC50 ([1]; Table 4) of 2 nM, an IC50 ([2]; Table 4) of 14.6 nM and an IC50 [3] of 8.7 nM. It also gave an IC50 [4] of 9 nM.
Work on `COc1ncc(-c2ccc3ncnc(C4=CCN(C(=O)/C=C/C(C)=O)CC4)c3c2)cc1NS(=O)(=O)c1c(F)cccc1F` [Example 201, (E)-2,6-difluoro-N-(2-methoxy-5-(4-(1-(4-oxopent-2-enoyl)-1,2,3,6-tetrahydropyridin-4-yl)quinazolin-6-yl)pyridin-3-yl)benzenesulfonamide] yielded an IC50 ([1]; Table 4) of 3.8 nM, an IC50 ([2]; Table 4) of 11.8 nM and an IC50 [3] of 7.2 nM. For the same compound, the IC50 [4] was 11.1 nM.
`COc1ncc(-c2ccc3ncnc(N4C[C@@H](C)N(C(=O)/C=C/C(C)=O)C[C@@H]4C)c3c2)cc1NS(=O)(=O)c1c(F)cccc1F` [Example 51, N-(5-(4-((2S,5R)-2,5-dimethyl-4-((E)-4-oxopent-2-enoyl)piperazin-1-yl)quinazolin-6-yl)-2-methoxypyridin-3-yl)-2,6-difluorobenzene-sulfonamide] gave an IC50 ([1]; Table 2) of 5.6 nM, an IC50 ([2]; Table 2) of 19.2 nM and an IC50 [3] of 48.7 nM. For the same compound, the IC50 [4] was 181 nM.
In the case of `COc1ncc(-c2ccc3ncnc(C4CCN(C(=O)/C=C/C(C)=O)CC4)c3c2)cc1NS(=O)(=O)c1sc(C)nc1C` [Example 203, (E)-N-(2-methoxy-5-(4-(1-(4-oxopent-2-enoyl)piperidin-4-yl)quinazolin-6-yl)pyridin-3-yl)-2,4-dimethylthiazole-5-sulfonamide], the IC50 ([1]; Table 4) is reported as 2.4 nM, the IC50 ([2]; Table 4) is reported as 10.4 nM and the IC50 [3] is reported as 8.5 nM. The IC50 [4] was 16.7 nM.
